Source: article PMC9609273 (Pharmaceuticals, 2022)
Converted amounts (≈) assume the structure as drawn. Like-named read-outs stand apart in the source and are kept apart here.

Columns and labels:
Mtb H37Rv = test: microbe, parasite or virus in culture; format: cell-based, Mycobacterium tuberculosis
[1] = test system: Normal Lung Fibroblasts (IMR-90); format: cell-based, human; details: read-out: Toxicity IC50 IMR-90
[2] = test system: Human non-tumorigenic lung epithelial cells (BEAS-2B); format: cell-based; details: read-out: Toxicity IC50 BEAS-2B
[3] = test system: Human Embryonic Kidney cells (HEK 293); details: for IC50: read-out: Toxicity IC50 HEK293
[4] = 6.0 × 10^–5 M in DMSO and 28% ethanol-water, 24 h, 25 °C
[5] = MABA, Mtb H37Rv, one week at 37 °C

Compound | MIC (Mtb H37Rv; [5]) | IC50 ([1]; MTT, 48 h, triplicate) | IC50 ([2]; MTT, 48 h, triplicate) | IC50 ([3]; MTT, 48 h, triplicate) | Cytotoxicity against HEK293 (in words) ([3]; MTT) | Change in λmax values (stability of hydrazone) [4] | MIC (Mtb H37Rv) | IC50 [1] | IC50 [2] | IC50 [3] | MIC (Mtb H37Rv; Mycobacterium tuberculosis, 168 h, MABA, Mtb H37Rv, one week at 37 °C)
3-((2-Isonicotinoylhydrazono)methyl)phenyl 2,4,6-trimethylbenzenesulfonate [SIH3] | 0.62 µM | > 100 µM | > 100 µM | 100 µM | – | – | – | – | – | – | –
3-((2-Isonicotinoylhydrazono)methyl)phenyl 2,5-dichlorobenzenesulfonate [SIH8] | 0.62 µM | 100 µM | > 100 µM | > 100 µM | – | – | – | – | – | – | –
3-((2-Isonicotinoylhydrazono)methyl)phenyl 3-nitrobenzenesulfonate [SIH10] | 0.62 µM | > 100 µM | > 100 µM | > 100 µM | – | – | – | – | – | – | –
3-((2-Isonicotinoylhydrazono)methyl)phenyl 4-(tert-butyl)benzenesulfonate [SIH2] | 0.62 µM | 89.5 µM | > 100 µM | > 100 µM | – | – | – | – | – | – | –
3-((2-Isonicotinoylhydrazono)methyl)phenyl 4-acetamidobenzenesulfonate [SIH11] | 0.62 µM | > 100 µM | > 100 µM | > 100 µM | – | – | – | – | – | – | –
3-((2-Isonicotinoylhydrazono)methyl)phenyl 4-bromobenzenesulfonate [SIH5] | 0.62 µM | 90.3 µM | > 100 µM | 100 µM | – | – | – | – | – | – | –
3-((2-Isonicotinoylhydrazono)methyl)phenyl 4-chlorobenzenesulfonate [SIH6] | 0.62 µM | > 100 µM | > 100 µM | > 100 µM | – | – | – | – | – | – | –
3-((2-Isonicotinoylhydrazono)methyl)phenyl 4-iodobenzenesulfonate [SIH7] | 0.62 µM | 100 µM | > 100 µM | > 100 µM | – | – | – | – | – | – | –
3-((2-Isonicotinoylhydrazono)methyl)phenyl 4-methoxybenzenesulfonate [SIH4] | 0.31 µM | > 100 µM | > 100 µM | 40.8 µM | moderately toxic | no significant change in λmax values | – | – | – | – | –
3-((2-Isonicotinoylhydrazono)methyl)phenyl 4-methylbenzenesulfonate [SIH1] | 0.31 µM | > 100 µM | > 100 µM | 57.2 µM | moderately toxic | no significant change in λmax values | – | – | – | – | –
3-((2-Isonicotinoylhydrazono)methyl)phenyl 4-nitrobenzenesulfonate [SIH9] | 0.62 µM | > 100 µM | > 100 µM | 100 µM | – | – | – | – | – | – | –
3-((2-Isonicotinoylhydrazono)methyl)phenyl [1,1′-biphenyl]-4-sulfonate [SIH12] | 0.31 µM | 57.7 µM | > 100 µM | 52.4 µM | moderately toxic | no significant change in λmax values | – | – | – | – | –
3-((2-Isonicotinoylhydrazono)methyl)phenyl quinoline-8-sulfonate [SIH13] | – | – | – | – | – | – | 0.31 µM | 100 µM | > 100 µM | 58.3 µM | –
NNC(=O)c1ccncc1 [Isoniazid, isonicotinic acid hydrazide, reference compound] | – | – | – | – | – | – | – | – | – | – | 0.31 µM (≈ 0.0425 µg/mL)
